Reference: article PMC7277225, “Structures of FOX-4 Cephamycinase in Complex with Transition-State Analog Inhibitors” (Biomolecules, 2020)

Key:
[1] = target: T1, FOX-4 cephamycinase (class C β-lactamase) (Escherichia coli, UniProt Q9L387); assay: steady-state kinetics, nitrocefin hydrolysis, […] min pre-incubation; assay type: biochemical; conditions: read-out: FOX-4 ^1 IC50
T1 construct: native FOX-4, purified from periplasmic fractions of E. coli

[2] = target: T1, FOX-4 cephamycinase (class C β-lactamase); assay: X-ray crystal structure (soak, […] Å); IC50 with purified enzyme by nitrocefin hydrolysis; assay type: biochemical
[3] = target: T1, FOX-4 cephamycinase (class C β-lactamase); assay: biochemical; conditions: read-out: FOX-4 ^1 IC50

Compound: CO/N=C(\C(=O)NCB(O)O)c1csc(N)n1 [CTX-like]
- IC50 [1]: 260 ± 20 nM

Compound: O=C(Cc1cccs1)N[C@@H](Cc1cccc(C(=O)O)c1)B(O)O [EC04]
- IC50 [1]: 420 ± 20 nM

Compound: CC(C)(O/N=C(\C(=O)NCB(O)O)c1csc(N)n1)C(=O)O [LP06]
- IC50 [2]: 110 ± 20 nM

Compound: O=C(Cc1cccs1)N[C@H](B(O)O)c1cccc(C(=O)O)c1 [SM23]
- IC50 [3]: 32 ± 3 nM
